# Experimental data as given in a melting point compilation (Tetko et al.; mined from patent text by program, amines drawn as free bases though some values may be those of a salt).
row,melting point,Compound
1,133 to 134 °C,CC(C)(C)c1cc(CN(c2cccnc2)S(C)(=O)=O)cc(C(C)(C)C)c1O
2,137 to 141 °C,COC(=O)CSc1cc(NC(=S)N2CCCN2)c(F)cc1Cl
3,150 to 151 °C,CCN(CC)c1cc(=O)c2c(o1)c(OC)cc1ccccc12
4,120 °C,Cc1nc(=O)n(COc2ccccc2)c(C)c1Br
5,108 to 109 °C,CCOC(=O)c1cc2cc(-c3ccc(C(C)O)cc3)ccc2o1 (stereo not drawn)
6,219 to 220 °C,CC1(C)Oc2ccc(S(=O)(=O)C(F)(F)F)cc2[C@@H](n2ccccc2=O)[C@@H]1O (relative stereo)
7,89 °C,Cc1cccc(N2CCN(CCCOc3ccc4ccc(=O)oc4c3)CC2)c1C
8,208 to 211 °C,NC(=O)c1sc2nccc(N3CCCC(O)C3)c2c1N (stereo not drawn)
9,155 °C,NS(=O)(=O)c1c(S)cccc1C(F)(F)F
10,210 °C,N#Cc1c(N)nc2ccccc2c1Cl
11,180 to 183 °C,O=C(NNC(=O)c1occ(-c2ccccc2)c1-c1ccccc1)c1ccoc1
12,191 to 193 °C,O=C(O)Cc1nc(-c2ccc(Cl)cc2)sc1Sc1ccccc1
13,252 to 254 °C,N#CCCc1c(-c2ccccc2)c(=O)[nH]c2cc(Cl)ccc12
14,211 to 214 °C,CC(C)N(Cc1nc(-c2ccccc2)no1)C(=O)COc1ccc(C(=O)O)cc1
15,107 to 108 °C,COc1cc(C(C)C)c2c(c1)S(=O)(=O)N(COc1cc(C(F)(F)F)nn1C)C2=O
16,165 to 173 °C,COC(=O)c1sccc1S(=O)(=O)NC(=O)Nc1nc(C)cc(OC)n1
17,157 to 160 °C,CC(C)(O)Cn1c(CO)nc2c(N)nc3cc(-c4cccc(C(=O)N5CCCC5)c4)cnc3c21
18,135 to 137 °C,Cc1ccc(Cl)c(Nc2ccccc2-c2nsc(=O)o2)c1Cl
19,109 °C,CS(=O)(=O)Nc1ccc2ccccc2c1-c1c(P(c2ccccc2)c2ccccc2)ccc2ccccc12
20,159 to 160 °C,CC(=O)OCC1Cc2cc(S(=O)(=O)N(C)C)c(Cl)c(Cl)c2O1 (stereo not drawn)
21,208 to 209 °C,CCn1c(=O)c2[nH]c(C(C)C)nc2n(Cc2ccc(OC)c(OC3CCCC3)c2)c1=O
22,141 to 142 °C,COCCNC(=O)c1cccc(-c2cccc3c(C)c(Cc4ccc(F)c(Cl)c4)sc23)c1
23,296 °C,NC(=O)c1ccc2[nH]c(=O)oc2c1
24,173 to 174 °C,Cc1nc2cc(F)c(C)cc2c(=O)[nH]1
25,222 to 223 °C,CC(=O)OC(C)(C)C(=O)Nc1c(C(=O)c2cc(C)ccn2)[nH]c2cc(Cl)ccc12

row,melting point,Compound
1,267 to 268 °C,Cc1ccc(Sc2c(O)c3ccc(Cl)cc3[nH]c2=O)cc1C
2,168 to 170 °C,Nc1ccc(C(O)(C(F)(F)F)C(F)(F)F)cc1O
3,170 to 174 °C,CC1CCc2c(N3CCCC3)ccc3c(=O)c(C(=O)O)cn1c23 (stereo not drawn)
4,131 to 132 °C,Cc1nc(C)c(C(C)(O)c2ccccc2)s1 (stereo not drawn)
5,149 to 151 °C,COC(=O)c1ccc2[nH]c(=O)oc2c1
6,190 to 191 °C,CCOC(=O)N1C(=S)NC(C)=C(C(=O)OC)C1c1cccc(Cl)c1Cl (stereo not drawn)
7,57 to 58 °C,COC(=O)CNCc1ccc(OCc2ccccc2)cc1
8,110 to 113 °C,CC(C)(C)c1cc(Oc2ccc(N)c(O)c2)ccc1Oc1ccc(N)c(O)c1
9,135 °C,COc1cccc2c1CC(C(=O)NCCOc1ccc(C(=O)OC(C)(C)C)cc1)N2S(=O)(=O)c1ccc(-c2ccc(F)cc2F)cc1 (stereo not drawn)
10,102 to 103 °C,O=C(O)Cc1ccc2c(c1)CC(CCNS(=O)(=O)c1ccccc1)C2 (stereo not drawn)
11,150 to 152 °C,O=C1C2=NCCCN2c2ccc(F)cc21
12,169 to 170 °C,NC(=O)CNC(=O)c1ccnc(-c2cccc3cc(Cc4cccc(C(F)(F)F)c4)sc23)c1F
13,241 to 244 °C,Nc1ncnc2c1ncn2OCCOCP(=O)(O)O
14,191 to 192 °C,CCOC(=O)c1ccc(C=Cc2ccc(OC)cc2)cc1
15,168 to 171 °C,Cn1c(-c2ccc(Cl)c(S(N)(=O)=O)c2)csc1=Nc1ccccc1
16,145 to 146 °C,NS(=O)(=O)C1Cc2ccccc2CC1=O (stereo not drawn)
17,102 °C,CCCCCCCCCCCCCCCCCC(O)c1ccc(O)c(C(=O)O)c1 (stereo not drawn)
18,240 to 245 °C,O=C(NC(CO)CO)c1ccc2cc(C(=O)O)[nH]c2c1
19,112 to 114 °C,COc1ccc(CC(=O)NCCc2ccc(N)cc2)cc1
20,105 to 106 °C,COC(=O)[C@@H](Cc1ccccc1)NC(=O)OCc1cc2cc(-c3ccsc3)ccc2o1
21,239 °C,Cc1nnc(-c2ccc(O)cc2)o1
22,186 to 187 °C,COC(=O)c1cc(C(=O)OC)cc(N2C(=O)C=CC2=O)c1
23,206 to 208 °C,Cn1c2ccc(Cl)cc2c2c(CC(=O)O)nn(-c3ccccc3)c(=O)c21
24,220 to 223 °C,O=C(O)C1=Cc2cc(Cl)cc(I)c2OC1C(F)(F)F (stereo not drawn)
25,110 to 112 °C,CC(C)(C)N1CC2(CCN(Cc3ccccc3)CC2)OC1=O

row,melting point,Compound
1,92 to 93 °C,CC(=O)N1CC(CCN2CCC(c3ccccc3)CC2)c2ccccc21 (stereo not drawn)
2,282 to 284 °C,COc1cc(Cl)c2[nH]c(=O)[nH]c(=O)c2c1OC
3,60 to 61 °C,CCNc1c(C(=O)OCC)c(C)nc2c1nnn2CC
4,39 to 41 °C,COc1ccc(C#CCCCCCCC#CCO)cc1OC
5,100 to 101 °C,OCc1ccc(-c2ccc(F)cn2)cc1
6,236 to 237 °C,O=C1Cc2cc3c(cc2CCN1)OCO3
7,122 °C,N#Cc1ncc(Cl)cc1OC1SCC(O)C(O)C1O (stereo not drawn)
8,229 to 230 °C,OCc1c(F)cccc1-c1ccc2nc(-c3ccc(Cl)cc3)cn2c1
9,149 °C,Cc1csc2c1c(C(=O)c1ccc(Cl)cc1)cn2C(C)C(=O)O (stereo not drawn)
10,257 to 261 °C,O=C1c2cccc3c(F)ccc(c23)C(=O)N1O
11,57 to 63 °C,C=C1C(=O)c2cc(C)ccc2OC1c1ccccc1 (stereo not drawn)
12,301 to 303 °C,N#Cc1cc2c([nH]c1=O)CCc1ccccc1-2
13,276 to 278 °C,O=C(O)CCCC(=O)N1CCN(c2cc3c(cc2F)c(=O)c(C(=O)O)c2sccn23)CC1
14,247 to 248 °C,COc1cc(C=CC(=O)Nc2cnc3ccccc3c2-c2ccccc2)cc(OC)c1OC(C)=O
15,78 to 79 °C,Oc1ccc([C@@H]2C[C@H]2c2ccccc2)cc1 (relative stereo)
16,144 to 146 °C,COc1ccc(-n2nc(Sc3ccccc3C)c(C)c(C#N)c2=O)cc1
17,80 to 81 °C,CC(C)c1cc(-c2ccc(F)cc2)n(-c2ccccn2)n1
18,74 to 76 °C,CCCCCCCCCCCCCCCCCC(=O)NC(C)Cc1cccc(C(F)(F)F)c1 (stereo not drawn)
19,142 to 143 °C,Cc1oc(-c2ccccc2)nc1COc1ccc([N+](=O)[O-])cn1
20,69 to 73 °C,Cc1c(Cl)cc([N+](=O)[O-])c(NC(C)C)c1[N+](=O)[O-]
21,69 °C,COc1cc(Nc2nccc(Nc3ccc(OCCCO)cc3)n2)cc(OC)c1OC
22,126 to 127 °C,Cc1nc2cnccc2n1-c1ccc(Cn2nnc3ccccc32)cc1
23,135 to 137 °C,C=C(C)COc1ccc(C(=O)C=Cc2c(Cl)cccc2Cl)c2oc3ccccc3c(=O)c12
24,180 to 181 °C,CCN(CC)c1ccc(CNc2cc(C(=O)Nc3ccccc3)ccc2OC)cc1
25,197 to 198 °C,CC(C)(C)CCN(CCC(C)(C)C)[C@@H](CC(=O)O)C(=O)O

row,melting point,Compound
1,130 to 140 °C,O=C1NCCOC1C(O)c1ccccc1 (stereo not drawn)
2,118 to 120 °C,COc1ccc(-c2nc(CN(C)C)nc3sc(C)c(C)c23)cc1OC
3,142 to 145 °C,CC(=O)OCCCNc1nnc(NCCCOC(C)=O)c2c1C(=O)c1ccccc1C2=O
4,117 to 119 °C,CCOC(=O)Cc1ncn(C(c2ccccc2)(c2ccccc2)c2ccccc2)n1
5,124 to 128 °C,Cc1nnsc1NC(=O)Nc1ccc(-n2nc(C(F)(F)F)cc2C2CC2)cc1
6,141 to 142 °C,CSc1cccc2c3c(n(Cc4ccc(Cl)cc4)c12)C(CC(=O)O)CCC3 (stereo not drawn)
7,70 to 71 °C,OCc1ccc(C2=CCCCC2)cc1
8,207 to 210 °C,NC(=O)c1cc(NCc2ccc(Cl)cc2)c([N+](=O)[O-])cc1[N+](=O)[O-]
9,202 to 203 °C,COc1c(NC(=O)c2ccc(C)c(-n3cc(C(=O)NCC4CCN(C)CC4)nn3)c2)cc(C(C)(C)C)cc1NS(C)(=O)=O
10,154 to 155 °C,CC1=C(C(=O)O)N2C(=O)C(NC(=O)Cc3ccc(CN=[N+]=[N-])cc3)C2SC1 (stereo not drawn)
11,185 to 187 °C,O=C(c1ccco1)c1cnn2c(-c3ccccc3)ccnc12
12,188 to 191 °C,CCN1C(=O)C(C)(C)C(=O)Nc2ccc(C=O)cc21
13,110 to 114 °C,COc1cc(Oc2cccc(C)c2)nc(C(=O)Nc2ccc(C)cc2)c1
14,> 300 °C,N#Cc1ccc(-c2cnc(-c3ccc(C#N)cc3)cn2)cc1
15,98 to 101 °C,CCc1cc(C)cc(CC)c1NC(=S)NC(C)(C)CC
16,306 to 308 °C,NS(=O)(=O)c1cc2ccc(=O)[nH]c2s1
17,80.9 °C,CCOC(=O)c1cncn1C1CC(C)(C)Oc2ccccc21 (stereo not drawn)
18,216 to 218 °C,CN1CCN(c2cc3c(c(N)c2F)c(=O)c(C(=O)O)cn3C2CC2)CC1
19,113 to 115 °C,COc1ccc(-c2cc3cc(OC)cc(CC(F)(F)F)c3o2)cc1
20,143 to 146 °C,Nc1sc(/C=C/Cc2ccc(Cl)cc2)c(CN(C2CCCCC2)C2CCCCC2)c1C(=O)c1ccc(Cl)cc1
21,127 to 128 °C,CCCOc1ccccc1-c1ccc(C#N)c(=S)[nH]1
22,59.5 to 60.5 °C,CCc1cc(=O)c2cc(C(C)CO)ccc2o1 (stereo not drawn)

row,Compound,melting point
1,CC1(OC(=O)c2ncn3c2C2CCCN2C(=O)c2c(Cl)cccc2-3)CCCC1 (stereo not drawn),190 to 191 °C
2,Cc1ccc(S(=O)(=O)OC2CCC3(C)C4CCC5(C)C(=O)CCC5C4CC(O)C3(O)C2)cc1 (stereo not drawn),154 to 156 °C
3,CCCCNC(=O)OC1c2ccccc2C(=O)N1c1ccc2ccc(Cl)nc2n1 (stereo not drawn),152 °C
4,COC(=O)C12COc3cc(C(F)(F)F)ccc3C1=NN(C(=O)N(C)c1ccc(C(F)(F)F)cc1)C2 (stereo not drawn),105 to 111 °C
5,CNC(=O)ON=C1SCOC1C (stereo not drawn),70 to 71.5 °C
6,OC[C@H]1C[C@H]2CN(c3ncc(F)cn3)CCN2C1,123 to 124 °C
